We go through 4 compounds from ChEMBL document CHEMBL1131500, “Novel biologically active nonpeptidic inhibitors of myristoylCoA:protein N-myristoyltransferase” (J Med Chem, 1998).

Test [1] has as its system Candida albicans. Kind of test: Compound was tested for the effective concentration against Candida albicans for 24 hr. Type of test: functional, organism-based.
Test [2] addresses T1, Peptide N-myristoyltransferase (Homo sapiens, UniProt P30419+O60551).
T1 sequence (P30419 whole entry): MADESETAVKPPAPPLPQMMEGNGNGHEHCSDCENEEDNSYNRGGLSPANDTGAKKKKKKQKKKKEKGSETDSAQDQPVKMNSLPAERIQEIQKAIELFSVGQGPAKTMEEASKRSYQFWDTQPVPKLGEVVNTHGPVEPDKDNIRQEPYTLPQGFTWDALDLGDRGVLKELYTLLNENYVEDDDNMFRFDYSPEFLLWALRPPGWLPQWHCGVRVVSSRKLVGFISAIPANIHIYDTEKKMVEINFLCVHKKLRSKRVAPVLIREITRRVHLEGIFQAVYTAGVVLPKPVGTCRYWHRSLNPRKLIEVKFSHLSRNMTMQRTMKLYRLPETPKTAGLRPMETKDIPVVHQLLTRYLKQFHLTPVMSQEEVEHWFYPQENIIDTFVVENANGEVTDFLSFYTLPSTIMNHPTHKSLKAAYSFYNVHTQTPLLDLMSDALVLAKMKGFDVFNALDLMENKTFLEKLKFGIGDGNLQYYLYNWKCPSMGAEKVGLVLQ
T1 sequence (O60551 whole entry): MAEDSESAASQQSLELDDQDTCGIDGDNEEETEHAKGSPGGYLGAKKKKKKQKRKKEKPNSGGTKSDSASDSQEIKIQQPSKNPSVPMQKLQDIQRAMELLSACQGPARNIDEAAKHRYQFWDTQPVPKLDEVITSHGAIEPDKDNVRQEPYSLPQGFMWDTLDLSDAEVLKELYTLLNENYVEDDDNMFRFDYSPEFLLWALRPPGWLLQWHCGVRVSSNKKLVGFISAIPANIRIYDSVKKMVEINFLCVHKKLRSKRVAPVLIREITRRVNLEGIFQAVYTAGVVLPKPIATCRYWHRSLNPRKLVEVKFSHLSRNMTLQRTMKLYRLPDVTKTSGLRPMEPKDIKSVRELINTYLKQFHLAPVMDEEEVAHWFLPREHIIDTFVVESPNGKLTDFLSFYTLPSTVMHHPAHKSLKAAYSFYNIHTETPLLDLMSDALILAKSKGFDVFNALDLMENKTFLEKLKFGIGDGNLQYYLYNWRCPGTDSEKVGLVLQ
Nature of the test: Compound was tested for the inhibition potency against human N-myristoyltransferase (NMT) using peptide substrate GNAASARR-NH2 at its apparent Km and myristoylCoA at 1 uM. It counts as protein assay.

Test [3] deals with T2, Glycylpeptide N-tetradecanoyltransferase (Candida albicans (strain SC5314 / ATCC MYA-2876) (Yeast), UniProt P30418).
T2 sequence (P30418 whole entry): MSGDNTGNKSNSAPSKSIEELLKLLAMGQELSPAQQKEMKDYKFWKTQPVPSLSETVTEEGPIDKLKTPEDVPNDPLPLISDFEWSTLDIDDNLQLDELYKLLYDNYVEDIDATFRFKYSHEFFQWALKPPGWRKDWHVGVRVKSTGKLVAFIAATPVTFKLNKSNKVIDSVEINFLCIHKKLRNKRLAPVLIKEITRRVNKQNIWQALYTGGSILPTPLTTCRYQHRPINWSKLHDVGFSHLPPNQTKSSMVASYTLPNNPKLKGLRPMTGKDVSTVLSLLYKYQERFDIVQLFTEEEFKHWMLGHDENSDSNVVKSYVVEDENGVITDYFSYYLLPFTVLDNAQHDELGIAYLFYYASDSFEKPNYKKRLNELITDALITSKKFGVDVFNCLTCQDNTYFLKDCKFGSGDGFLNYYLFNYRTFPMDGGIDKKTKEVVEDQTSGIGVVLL
Nature of the test: Compound was tested for the inhibition potency against Candida albicans N-myristoyltransferase (NMT) using peptide substrate GNAASARR-NH2 at its apparent Km and myristoylCoA at 1 uM.

For test [4], the target named is T1, Peptide N-myristoyltransferase. Kind of test: compound was tested for the inhibition potency against human N-myristoyltransferase (NMT) using peptide substrate GNAASARR-NH2 at its apparent Km and myristoylCoA at 1 uM. It counts as protein assay.
Test [5] deals with Candida albicans. Nature of the test: compound was tested for the effective concentration against Candida albicans for 24 hr. It counts as functional, organism-based.
In test [6] the test system is Candida albicans. Kind of test: the fungicidal activity against Candida albicans was reported. Type of test: functional.
The target in test [7] is T2, Glycylpeptide N-tetradecanoyltransferase. Kind of test: compound was tested for the inhibition potency against Candida albicans N-myristoyltransferase (NMT) using peptide substrate GNAASARR-NH2 at its apparent Km and myristoylCoA at 1 uM.
Test [8] shares this target. Kind of test: The Compound was tested for the inhibition potency against Candida albicans N-myristoyltransferase (NMT) and reported as apparent Ki.

In brackets after ≈: the same amount, converted by molar mass.

For the compound `Cc1nccn1CCCCc1ccc(CC(=O)N[C@H](CO)Cc2ccc(OCCC3CCCCC3)c(CCCN)c2)cc1`, in the test with Candida albicans [1], the response was half-maximal at 56 µM (EC50). In addition, the IC50 is 62.3 µM in test [2] and 29.3 µM in test [3].
On to `Cc1nccn1CCCCc1ccc(CC(=O)N[C@H](CO)Cc2ccc(OCCC3CCCCC3)c(CCCCN)c2)cc1`, for which the IC50 in test [4] came to 64 µM; in test [7], 20 µM. In the test on Candida albicans [5], this compound registered an EC50 of 49 µM. Besides, in the test on Candida albicans [6], the minimal fungicidal concentration (MFC) worked out at 150 µM (≈ 90.4 µg/mL).
As for `Cc1nccn1CCCCc1ccc(CC(=O)N[C@@H](CO)Cc2ccc(OCCC3CCCCC3)c(CCCN)c2)cc1`, the IC50 in test [4] amounted to 6.5 µM; in test [7], 17.5 µM. This compound also displayed an EC50 with Candida albicans [5] of 77 µM. The MFC against Candida albicans [6] was determined as 250 µM (≈ 147 µg/mL).
On to H-ALYASKLS-NH2, for which the Ki in test [8] was 15.3 µM.
